Experimental findings from patent publication US20040157863A1, “Triazolopyrimidines” (priority 2001, published 2004) are described below.

Like-named read-outs stand apart in the source and are kept apart here.

The subject of one data set is Podosphaera leucotricha. Put plainly: Podosphaera test (apple)/protective. To be noted: apple plants, protective spray, application rate 100 g/ha, evaluation 10 days after inoculation.
A further data set relates to Venturia inaequalis. The data set can be described thus: Venturia test (apple)/protective. Particulars: apple plants, protective spray, application rate 100 g/ha, evaluation 12 days after inoculation.

Protocol for Podosphaera leucotricha: Podosphaera Test (Apple)/Protective
After the spray coating has dried on, the plants are inoculated with an aqueous spore suspension of the apple mildew pathogen Podosphaera leucotricha. The plants are then placed in the greenhouse at about 23° C. and a relative atmospheric humidity of about 70%.
Evaluation is carried out 10 days after the inoculation.
Protocol for Venturia inaequalis: Venturia Test (Apple)/Protective
After the spray coating has dried on, the plants are inoculated with an aqueous conidia suspension of the apple scab pathogen Venturia inaequalis and then remain in an incubation cabin at about 20° C. and 100% relative atmospheric humidity for one day.
The plants are then placed in a greenhouse at about 21° C. and a relative atmospheric humidity of about 90%.
Evaluation is carried out 12 days after the inoculation.

Turning to `CSc1nc2nc(Cl)c(-c3c(Cl)cccc3Cl)c(N[C@@H](C)C(F)(F)F)n2n1` [drawing 57], the Efficacy in % with Podosphaera leucotricha turned out to be 100%.
What is called chromatographic logP is lipophilicity estimated from chromatographic retention. Lower therefore signals a more hydrophilic compound. For the compound `CSc1nc2nc(Cl)c(-c3c(Cl)cccc3Cl)c(N[C@@H](C)C(F)(F)F)n2n1` [compound 8], the chromatographic logP in the data set “logP (HPLC)” (HPLC (gradient method)) worked out at 3.82.
Take `CS(=O)(=O)c1nc2nc(Cl)c(-c3c(Cl)cccc3Cl)c(NC3CCCC3)n2n1` [compound 6]: the chromatographic logP in “logP (HPLC)” (HPLC (gradient method)) came out at 3.35.
Take `CSc1nc2nc(Cl)c(-c3c(F)cc(F)cc3F)c(N[C@@H](C)C(F)(F)F)n2n1` [drawing 61]: the Efficacy in % in the data set with Venturia inaequalis came to 100%.
In the data set “logP (HPLC)”, `CSc1nc2nc(Cl)c(-c3c(Cl)cccc3Cl)c(Cl)n2n1` [Example 572] displayed a chromatographic logP of 3.86.
Regarding `CSc1nc2nc(Cl)c(-c3c(F)cc(F)cc3F)c(N[C@@H](C)C(F)(F)F)n2n1` [compound 9], in the data set “logP (HPLC)” (HPLC (gradient method)), the chromatographic logP was determined as 3.58.
For the compound `CSc1nc2nc(Cl)c(-c3c(Cl)cccc3Cl)c(N[C@@H](C)C(F)(F)F)n2n1` [drawing 60], in the data set on Venturia inaequalis, the Efficacy in % stood at 100%.
As to `C[C@H](Nc1c(-c2c(F)cc(F)cc2F)c(Cl)nc2nc([S+](C)[O-])nn12)C(F)(F)F` (stereo partly drawn) [Example 2b, 5-chloro-2-(methylsulphinyl)-N-[(1S)-2,2,2-trifluoro-1-methylethyl]-6-(2,4,6-trifluorophenyl)[1,2,4]triazolo[1,5-a]pyrimidin-7-amine], the chromatographic logP in “logP (HPLC)” (HPLC) turned out to be 2.5.
The same measure, in the same setting: with `C[C@H](Nc1c(-c2c(F)cc(F)cc2F)c(Cl)nc2nc(S(C)(=O)=O)nn12)C(F)(F)F` [Example 2a, 5-chloro-2-(methylsulphonyl)-N-[(1S)-2,2,2-trifluoro-1-methylethyl]-6-(2,4,6-tri-fluorophenyl)[1,2,4]triazolo[1,5-a]pyrimidin-7-amine] the figure was 2.94.
In turn, `CSc1nc2nc(Cl)c(-c3c(F)cc(F)cc3F)c(Cl)n2n1` [Example 568, 5,7-dichloro-2-(methylsulphanyl)-6-(2,4,6-trifluorophenyl)-[1,2,4]triazolo[1,5-a]pyrimidine] returned a chromatographic logP in “logP (HPLC)” of 3.43.
The compound `CSc1nc2nc(Cl)c(-c3c(F)cc(F)cc3F)c(N3CCC(C(F)(F)F)CC3)n2n1` [Example 1, 5-chloro-2-(methylsulphanyl)-7-[4-(trifluoromethyl)-1-piperidinyl]-6-(2,4,6-trifluorophenyl)-[1,2,4]triazolo[1,5-a]pyrimidine] registered a chromatographic logP in “logP (HPLC)” of 4.1.
On the same count and under the same terms, then `CSc1nc2nc(O)c(-c3c(F)cc(F)cc3F)c(O)n2n1` [Example 585, 2-methylsulphanyl-6-(2,4,6-trifluoro-phenyl)-[1,2,4]triazolo[1,5-a]pyrimidine-5,7-diol], with 0.47.
In the data set with Podosphaera leucotricha, `CSc1nc2nc(Cl)c(-c3c(F)cc(F)cc3F)c(N[C@@H](C)C(F)(F)F)n2n1` [drawing 58] yielded an Efficacy in % of 94%.
